How the values were obtained:
[1] = test system: three of the tumor cell lines; assay: Growth tests of chemotherapeutic agents in the Drug Evaluation Core Laboratory; assay type: cell-based; details: range over three of the tumor cell lines
Procedure: Growth of cell lines. Comparisons of different inhibitors with regard to suppression of human cancer cell growth were made by the University of Michigan Cancer Center in vitro Drug Evaluation Core Laboratory. MCF-7 breast carcinoma cells, HT-29 colon adenocarcinoma cells, H-460 lung large cell carcinoma cells, and 9L brain gliosarcoma cells were grown in RPMI 1640 medium with 5% fetal bovine serum, 2 mM glutamine, 50 units/ml of penicillin, […] of streptomycin, and 0.1 mg/ml of neomycin. UMSCC-10A head and neck squamous carcinoma cells were grown in minimal essential medium with Earle salts and the same supplements. Medium components were from Sigma Chemical Co. Cells were plated in 96-well microtiter plates (1000 cells/well for H-460 and 9L cells, and 2000 cells/well for the other lines), and the test compounds were added 1 day later. The stock inhibitor solutions, 2 mM in 2 mM BSA, were diluted with different amounts of additional 2 mM BSA, then each solution was diluted 500-fold with growth medium to obtain the final concentrations indicated in the Figures and Tables.
Five days after plating the H-460 and 9L cells, or 6 days for the other lines, cell growth was evaluated by staining the adhering cells with sulforhodamine B and measuring the absorbance at 520 nm (Skehan, P. et al., “New Colorimetric Cytotoxicity Assay for Anticancer-Drug Screening,” J. Natl. Cancer Inst., 82:1107-1112 (1990)). The absorbance of the treated cultures is reported as percent of that of control cultures, to provide an estimate of the fraction of the cells that survived, or of inhibition of growth rate.

[2] = substituent of phenyl group; estimated from the Table in Hogberg et al.; cited from earlier work

SMILES | IC50 [1] [nM] | σ + π [2]
COc1cc([C@@H]2c3cc4c(cc3[C@@H](O[C@@H]3O[C@@H]5CO[C@@H](C)O[C@H]5[C@H](O)[C@H]3O)[C@H]3COC(=O)[C@H]23)OCO4)cc(OC)c1O [etoposide] | 100 to 1000 | 
O=c1[nH]cc(F)c(=O)[nH]1 [fluorouracil] | 70 to 200 | 
CCCCCCCCCCCCCCCC(=O)N[C@H](CN1CCCC1)[C@H](O)c1cccc(OC)c1 [m-methoxy-P4] |  | 0.10
CN(Cc1cnc2nc(N)nc(N)c2n1)c1ccc(C(=O)N[C@@H](CCC(=O)O)C(=O)O)cc1 [methotrexate] | 30 to 200 | 
CCCCCCCCCCCCCCCC(=O)N[C@H](CN1CCCC1)[C@H](O)c1ccc(Cl)cc1 [p-chloro-P4] |  | 0.94
CCCCCCCCCCCCCCCC(=O)N[C@H](CN1CCCC1)[C@H](O)c1ccc(C)cc1 [p-methyl-P4] |  | 0.39
